For data set [1], the target named is T1, human sphingosine kinase type 2 (hSPHK2) (Homo sapiens, UniProt Q9NRA0).
T1 construct: purchased; host or cells: Sf9 insect cells (baculovirus)
T1 sequence (Q9NRA0 1-654): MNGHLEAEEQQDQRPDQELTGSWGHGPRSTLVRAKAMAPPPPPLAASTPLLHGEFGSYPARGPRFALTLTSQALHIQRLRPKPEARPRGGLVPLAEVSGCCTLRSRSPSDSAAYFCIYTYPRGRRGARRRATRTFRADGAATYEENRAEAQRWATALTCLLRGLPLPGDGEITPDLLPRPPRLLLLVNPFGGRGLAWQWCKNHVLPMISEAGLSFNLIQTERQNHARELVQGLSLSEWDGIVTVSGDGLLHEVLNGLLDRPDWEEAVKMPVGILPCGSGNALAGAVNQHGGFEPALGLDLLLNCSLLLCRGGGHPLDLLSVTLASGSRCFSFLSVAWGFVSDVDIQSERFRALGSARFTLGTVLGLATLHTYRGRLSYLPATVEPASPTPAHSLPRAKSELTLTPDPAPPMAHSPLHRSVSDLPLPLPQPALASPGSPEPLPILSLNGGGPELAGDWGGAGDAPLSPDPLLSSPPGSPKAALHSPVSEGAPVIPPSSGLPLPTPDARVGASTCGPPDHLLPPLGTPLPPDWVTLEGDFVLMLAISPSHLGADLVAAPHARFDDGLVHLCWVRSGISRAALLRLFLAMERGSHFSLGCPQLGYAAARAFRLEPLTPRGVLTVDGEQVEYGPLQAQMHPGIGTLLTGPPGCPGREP
Nature of the data set: Sphingosine kinase assay, recombinant human SPHK2 ([32P]S1P product, scintillation counting). In kind it is biochemical. Particulars: read-out: activity hSPHK2 (range estimate of KI). An outline of the steps: (§1)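 Activity read as [32P]S1P bound to cation exchange paper and quantified by scintillation counting, standard kinase protocol. Enzyme sources: human SPHK2 partially purified from baculovirus-infected Sf9 lysates; human SPHK1 as crude cleared Sf9 lysate.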

The target of data set [2] is T2, human sphingosine kinase type 1 (hSPHK1) (Homo sapiens, UniProt Q9NYA1).
T2 construct: made in house; host or cells: Sf9 insect cells (baculovirus)
Nature of the data set: Sphingosine kinase assay, recombinant human SPHK1 ([32P]S1P product, scintillation counting). In kind it is biochemical. The settings on record: read-out: activity hSPHK1 (range estimate of KI). An outline of the steps:
as §1

The conditions of data set [3]: patients, 1-yr trial; cited from earlier work.

In patent US10100022B2, “Sphingosine kinase inhibitors” (University of Virginia Patent Foundation, priority 2014, dated 2018) one finds Ki and modest hypertension data, which are given here for ten molecules.

One may read the Ki as the equilibrium dissociation constant of an inhibitor or competing ligand from its target.

Counter-ions that a name gives are not always drawn.

T2 sequence (Q9NYA1 whole entry): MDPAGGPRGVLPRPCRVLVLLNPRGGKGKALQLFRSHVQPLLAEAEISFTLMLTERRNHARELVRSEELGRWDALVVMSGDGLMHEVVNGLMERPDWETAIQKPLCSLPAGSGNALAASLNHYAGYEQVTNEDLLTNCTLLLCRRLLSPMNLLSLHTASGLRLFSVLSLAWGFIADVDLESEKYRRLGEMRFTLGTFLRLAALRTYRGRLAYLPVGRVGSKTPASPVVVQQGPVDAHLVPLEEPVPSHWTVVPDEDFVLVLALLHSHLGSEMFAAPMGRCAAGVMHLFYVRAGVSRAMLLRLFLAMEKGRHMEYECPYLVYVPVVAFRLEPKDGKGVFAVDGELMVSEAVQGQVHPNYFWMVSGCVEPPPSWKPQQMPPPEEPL

In the case of `N=C(N)N1CCC[C@H]1c1nc(-c2ccc(OC/C=C/c3ccc(C(F)(F)F)cc3)c(C(F)(F)F)c2)no1` [Compound 88A, (S,E)-amino(2-(3-(3-(trifluoromethyl)-4-((3-(4-(trifluoromethyl)phenyl)allyl)oxy)phenyl)-1,2,4-oxadiazol-5-yl)pyrrolidin-1-yl)methaniminium 2,2,2-trifluoroacetate], the Ki in data set [1] was less than 1 µM; in data set [2], greater than 10 µM.
As to `N=C(N)N1CCC[C@H]1c1nc(-c2ccc(OC/C=C/c3ccccc3C(F)(F)F)c(C(F)(F)F)c2)no1` [Compound 89A, (S,E)-2-(3-(3-(trifluoromethyl)-4-((3-(2-(trifluoromethyl)phenyl)allyl)oxy)phenyl)-1,2,4-oxadiazol-5-yl)pyrrolidine-1-carboximidamide hydrochloride], the Ki in data set [1] and in data set [2] was greater than 10 µM each time.
Turning to `N=C(N)N1CCC[C@H]1c1nc(-c2ccc(OC/C=C/c3cccc(C(F)(F)F)c3)c(C(F)(F)F)c2)no1` [Compound 90A, (S,E)-amino(2-(3-(3-(trifluoromethyl)-4-((3-(3-(trifluoromethyl)phenyl)allyl)oxy)phenyl)-1,2,4-oxadiazol-5-yl)pyrrolidin-1-yl)methaniminium 2,2,2-trifluoroacetate], the Ki in data set [1] was less than 1 µM; in data set [2], greater than 10 µM.
Consider `N=C(N)N1CCC[C@H]1c1nc(-c2ccc(OCC/C=C/c3ccc(C(F)(F)F)cc3)c(C(F)(F)F)c2)no1` [Compound 91A, (S,E)-2-(3-(3-(trifluoromethyl)-4-((4-(4-(trifluoromethyl)phenyl)but-3-en-1-yl)oxy)phenyl)-1,2,4-oxadiazol-5-yl)pyrrolidine-1-carboximidamide hydrochloride], for which the Ki in data set [1] is less than 1 µM; in data set [2] it was greater than 10 µM.
Turning to `N=C(N)N1CCC[C@H]1c1nc(-c2ccc(OC/C=C\c3ccc(C(F)(F)F)cc3)c(C(F)(F)F)c2)no1` [Compound 92A, (S,Z)-amino(2-(3-(3-(trifluoromethyl)-4-((3-(4-(trifluoromethyl)phenyl)allyl)oxy)phenyl)-1,2,4-oxadiazol-5-yl)pyrrolidin-1-yl)methaniminium 2,2,2-trifluoroacetate], the Ki in data set [1] is less than 1 µM; in data set [2], greater than 10 µM.
Taken in the same sequence, the figures for `CC(C)=CCC/C(C)=C/COc1ccc(-c2noc([C@@H]3CCCN3C(=N)N)n2)cc1C(F)(F)F` [Compound 93A, (S,E)-(2-(3-(4-((3,7-dimethylocta-2,6-dien-1-yl)oxy)-3-(trifluoromethyl)phenyl)-1,2,4-oxadiazol-5-yl)pyrrolidin-1-yl)(13-iodanylidene)methanamine hydrochloride] were greater than 10 µM and greater than 10 µM.
Turning to `CCCOc1ccc(CCc2ccc(-c3noc([C@@H]4CCCN4C(=N)N)n3)cc2C(F)(F)F)cc1` [Compound 94A, (S)-2-(3-(4-(4-propoxyphenethyl)-3-(trifluoromethyl)phenyl)-1,2,4-oxadiazol-5-yl)pyrrolidine-1-carboximidamide hydrochloride], the results for the Ki in data set [1] and in data set [2] were less than 1 µM and greater than 10 µM, respectively.
Consider `N=C(N)N1CC[C@H](O)[C@H]1c1nc(-c2ccc(OCCCC3CCCCC3)c(C(F)(F)F)c2)no1` [Compound 95A, amino((2S,3S)-2-(3-(4-(3-cyclohexylpropoxy)-3-(trifluoromethyl)phenyl)-1,2,4-oxadiazol-5-yl)-3-hydroxypyrrolidin-1-yl)methaniminium chloride], for which the results for the inhibition constant (Ki) in data set [1] and in data set [2] were less than 1 µM and 1 to 10 µM, respectively.
Taken in the same sequence, the figures for `N=C(N)N1CC[C@H](O)[C@H]1c1nc(-c2ccc(OCC3CCCCC3)c(C(F)(F)F)c2)no1` [Compound 96A, amino((2S,3S)-2-(3-(4-(cyclohexylmethoxy)-3-(trifluoromethyl)phenyl)-1,2,4-oxadiazol-5-yl)-3-hydroxypyrrolidin-1-yl)methaniminium chloride] were less than 1 µM and less than 1 µM.
Turning to `CCCCCCCCc1ccc(CCC(N)(CO)CO)cc1` [fingolimod, 2-amino-2-[2-(4-octylphenyl)ethyl] propane 1,3-diol], the modest hypertension in data set [3] is recorded as 2-3 mmHg.
